Data taken from US20230192686A1, “1H-PYRROLO[2,3-B]PYRIDINES AND PREPARATION AND USES THEREOF” (BioSplice Therapeutics, Inc., priority 2021, published 2023).

Molecular target: recombinant DYRK1A kinase (Homo sapiens, UniProt Q13627)
Assay: DYRK1A kinase assay (Ser/Thr 18 peptide Z-lyte FRET)
Type: biochemical
Settings: DYRK1A kinase activity; 15 μM ATP, 4 μM Ser/Thr peptide 18, one hour at room temperature
In short: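 Recombinant DYRK1A at 0.25 μg/mL was incubated 1 h at room temperature with 15 μM ATP, 4 μM Ser/Thr 18 peptide and compound, in duplicate, 11-point series from 10 μM. Phosphorylation was read by Z-lyte FRET after 1 h protease development, as the coumarin/fluorescein emission ratio converted to % phosphorylation. IC50 by non-linear regression.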

| EC50 | SMILES |
| --- | --- |
| 0.004 µM | CN1CCN(c2cc(-c3cnc4[nH]cc(-c5ccc6c(c5)C5(CCCCC5)NC6=O)c4c3)ccn2)CC1 [Compound 1398, 6′-(5-(2-(4-Methylpiperazin-1-yl)pyridin-4-yl)-1H-pyrrolo[2,3-b]pyridin-3-yl)spiro[cyclohexane-1,1′-isoindolin]-3′-one] |
| 0.001 µM | CN1CCN(c2cc(-c3cnc4[nH]cc(-c5ccc6ncccc6c5)c4c3)ccn2)CC1 [Compound 1404, 6-(5-(2-(4-Methylpiperazin-1-yl)pyridin-4-yl)-1H-pyrrolo[2,3-b]pyridin-3-yl)quinoline] |
| 0.011 µM | Clc1ccc2c(-c3ccc4ncccc4c3)c[nH]c2n1 [Compound 1446, 6-(6-Chloro-1H-pyrrolo[2,3-b]pyridin-3-yl)quinoline] |
| 0.004 µM | Cc1ccc2c(-c3cc(F)c4nc(C)n(C(C)C)c4c3)c[nH]c2n1 [Compound 1459, 4-Fluoro-1-isopropyl-2-methyl-6-(6-methyl-1H-pyrrolo[2,3-b]pyridin-3-yl)-1H-benzo[d]imidazole] |
| 0.057 µM | Cc1ccc2c(-c3ccc4c(c3)C(C)(C)NC4=O)c[nH]c2n1 [Compound 1481, 3,3-Dimethyl-5-(6-methyl-1H-pyrrolo[2,3-b]pyridin-3-yl)isoindolin-1-one] |
| 0.105 µM | Cn1cc2cc(-c3c[nH]c4nc(C5CC5)ccc34)ccc2n1 [Compound 1495, 5-(6-Cyclopropyl-1H-pyrrolo[2,3-b]pyridin-3-yl)-2-methyl-2H-indazole] |
| 0.001 µM | O=C(NCC(F)F)c1cnc2ccc(-c3c[nH]c4nc(C5CC5)ccc34)cn12 [Compound 1499, 6-(6-Cyclopropyl-1H-pyrrolo[2,3-b]pyridin-3-yl)-N-(2,2-difluoroethyl) imidazo[1,2-a]pyridine-3-carboxamide] |
| 0.005 µM | c1cn2cc(-c3c[nH]c4nc(C5CC5)ccc34)cnc2n1 [Compound 1500, 6-(6-Cyclopropyl-1H-pyrrolo[2,3-b]pyridin-3-yl)imidazo[1,2-a] pyrimidine] |
| 0.1 µM | c1nc2ccc(-c3c[nH]c4nc(C5CC5)ccc34)cn2n1 [Compound 1505, 6-(6-Cyclopropyl-1H-pyrrolo[2,3-b]pyridin-3-yl)-[1,2,4]triazolo[1,5-a] pyridine] |
| 0.038 µM | Cn1nnc2ccc(-c3c[nH]c4nc(C5CC5)ccc34)cc21 [Compound 1507, 6-(6-Cyclopropyl-1H-pyrrolo[2,3-b]pyridin-3-yl)-1-methyl-1H-benzo[d][1,2,3]triazole] |
| 0.066 µM | CN1CCN(C(=O)c2cnn3ccc(-c4c[nH]c5nc(C6CC6)ccc45)cc23)CC1 [Compound 1517, (5-(6-Cyclopropyl-1H-pyrrolo[2,3-b]pyridin-3-yl)pyrazolo[1,5-a]pyridin-3-yl)(4-methylpiperazin-1-yl)methanone] |
| 0.229 µM | COc1ncnc2ccc(-c3c[nH]c4nc(C5CC5)ccc34)cc12 [Compound 1533, 6-(6-Cyclopropyl-1H-pyrrolo[2,3-b]pyridin-3-yl)-4-methoxyquinazoline] |
| 0.012 µM | CN1CCN(c2ncnc3ccc(-c4c[nH]c5nc(C6CC6)ccc45)cc23)CC1 [Compound 1534, 6-(6-Cyclopropyl-1H-pyrrolo[2,3-b]pyridin-3-yl)-4-(4-methylpiperazin-1-yl)quinazoline] |
| 0.043 µM | Cc1nc2c(F)cc(-c3c[nH]c4nc(C5CCC5)ccc34)cc2n1C(C)C [Compound 1543, 6-(6-Cyclobutyl-1H-pyrrolo[2,3-b]pyridin-3-yl)-4-fluoro-1-isopropyl-2-methyl-1H-benzo[d]imidazole] |
| 2.05 µM | Cc1nc2cnc(-c3c[nH]c4nc(C5CCC5)ccc34)cc2n1C(C)C [Compound 1546, 6-(6-Cyclobutyl-1H-pyrrolo[2,3-b]pyridin-3-yl)-1-isopropyl-2-methyl-1H-imidazo[4,5-c]pyridine] |
| 0.121 µM | c1nc2ccc(-c3c[nH]c4nc(C5CCC5)ccc34)cn2n1 [Compound 1547, 6-(6-Cyclobutyl-1H-pyrrolo[2,3-b]pyridin-3-yl)-[1,2,4]triazolo[1,5-a] pyridine] |
| 0.008 µM | O=C(NCC(F)F)c1cnn2ccc(-c3c[nH]c4nc(C5CCC5)ccc34)cc12 [Compound 1554, 5-(6-Cyclobutyl-1H-pyrrolo[2,3-b]pyridin-3-yl)-N-(2,2-difluoroethyl) pyrazolo[1,5-a]pyridine-3-carboxamide] |
| 0.005 µM | CN1CCC(NC(=O)c2cnn3ccc(-c4c[nH]c5nc(C6CCC6)ccc45)cc23)CC1 [Compound 1556, 5-(6-Cyclobutyl-1H-pyrrolo[2,3-b]pyridin-3-yl)-N-(1-methylpiperidin-4-yl)pyrazolo[1,5-a]pyridine-3-carboxamide] |
| 0.291 µM | O=C(c1cnn2ccc(-c3c[nH]c4nc(C5CCC5)ccc34)cc12)N1CCCCC1 [Compound 1558, (5-(6-Cyclobutyl-1H-pyrrolo[2,3-b]pyridin-3-yl)pyrazolo[1,5-a]pyridin-3-yl)(piperidin-1-yl)methanone] |

| EC50 | SMILES |
| --- | --- |
| 0.05 µM | O=C1NCCOc2cc(-c3c[nH]c4nc(C5CCC5)ccc34)ccc21 [Compound 1571, 8-(6-Cyclobutyl-1H-pyrrolo[2,3-b]pyridin-3-yl)-3,4-dihydrobenzo[f] [1,4]oxazepin-5(2H)-one] |
| 0.214 µM | CN1CCC(Oc2ncnc3ccc(-c4c[nH]c5nc(C6CCC6)ccc45)cc23)CC1 [Compound 1577, 6-(6-Cyclobutyl-1H-pyrrolo[2,3-b]pyridin-3-yl)-4-((1-methylpiperidin-4-yl)oxy)quinazoline] |
| 0.018 µM | COc1ccc2c(-c3ccc4nccn4c3)c[nH]c2n1 [Compound 1666, 6-(6-Methoxy-1H-pyrrolo[2,3-b]pyridin-3-yl)imidazo[1,2-a]pyridine] |
| 0.065 µM | COc1ccc2c(-c3ccc4ncnn4c3)c[nH]c2n1 [Compound 1673, 6-(6-Methoxy-1H-pyrrolo[2,3-b]pyridin-3-yl)-[1,2,4]triazolo[1,5-a] pyridine] |
| 0.007 µM | COc1ccc2c(-c3ccc4ncccc4c3)c[nH]c2n1 [Compound 1698, 6-(6-Methoxy-1H-pyrrolo[2,3-b]pyridin-3-yl)quinoline] |
| 0.144 µM | CCOc1ccc2c(-c3ccc4ncnn4c3)c[nH]c2n1 [Compound 1757, 6-(6-Ethoxy-1H-pyrrolo[2,3-b]pyridin-3-yl)-[1,2,4]triazolo[1,5-a] pyridine] |
| 0.008 µM | Cc1nc2c(F)cc(-c3c[nH]c4nc(CO)ccc34)cc2n1C(C)C [Compound 1795, (3-(4-Fluoro-1-isopropyl-2-methyl-1H-benzo[d]imidazol-6-yl)-1H-pyrrolo[2,3-b]pyridin-6-yl)methanol] |
| 0.003 µM | O=C(Nc1cccnc1)c1cnn2ccc(-c3c[nH]c4nc(CO)ccc34)cc12 [Compound 1809, 5-(6-(Hydroxymethyl)-1H-pyrrolo[2,3-b]pyridin-3-yl)-N-(pyridin-3-yl) pyrazolo[1,5-a]pyridine-3-carboxamide] |
| 0.001 µM | CN1CCC(C(=O)Nc2ccc3c(-c4ccc5nn(C)cc5c4)c[nH]c3n2)CC1 [Compound 1831, 1-Methyl-N-(3-(2-methyl-2H-indazol-5-yl)-1H-pyrrolo[2,3-b]pyridin-6-yl)piperidine-4-carboxamide] |
| 0.001 µM | Cc1nc2c(F)cc(-c3c[nH]c4nc(NC(=O)C5CCN(C)CC5)ccc34)cc2n1C(C)C [Compound 1837, N-(3-(4-Fluoro-1-isopropyl-2-methyl-1H-benzo[d]imidazol-6-yl)-1H-pyrrolo[2,3-b]pyridin-6-yl)-1-methylpiperidine-4-carboxamide] |
| 0.001 µM | CN1CCC(C(=O)Nc2ccc3c(-c4ccn5ncc(-c6cccnc6)c5c4)c[nH]c3n2)CC1 [Compound 1847, 1-Methyl-N-(3-(3-(pyridin-3-yl)pyrazolo[1,5-a]pyridin-5-yl)-1H-pyrrolo[2,3-b]pyridin-6-yl)piperidine-4-carboxamide] |
| 0.03 µM | CN1CCC(C(=O)Nc2ccc3c(-c4ccnc(N5CCN(C)CC5)c4)c[nH]c3n2)CC1 [Compound 1855, 1-Methyl-N-(3-(2-(4-methylpiperazin-1-yl)pyridin-4-yl)-1H-pyrrolo [2,3-b]pyridin-6-yl)piperidine-4-carboxamide] |
| 0.005 µM | CN1CCC(C(=O)Nc2ccc3c(-c4ccc5c(c4)C(C)(C)CNC5=O)c[nH]c3n2)CC1 [Compound 1863, N-(3-(4,4-Dimethyl-1-oxo-1,2,3,4-tetrahydroisoquinolin-6-yl)-1H-pyrrolo[2,3-b]pyridin-6-yl)-1-methylpiperidine-4-carboxamide] |
| 0.001 µM | CN1CCC(C(=O)Nc2ccc3c(-c4ccc5ncccc5c4)c[nH]c3n2)CC1 [Compound 1866, 1-Methyl-N-(3-(quinolin-6-yl)-1H-pyrrolo[2,3-b]pyridin-6-yl) piperidine-4-carboxamide] |
| 0.051 µM | CN1CCN(c2cc(-c3c[nH]c4nc(NC(=O)c5ccncc5)ccc34)ccn2)CC1 [Compound 1897, N-(3-(2-(4-Methylpiperazin-1-yl)pyridin-4-yl)-1H-pyrrolo[2,3-b]pyridin-6-yl)isonicotinamide] |
| 0.02 µM | O=C(Nc1ccc2c(-c3ccc4c(c3)C3(CCNCC3)CC4=O)c[nH]c2n1)c1ccncc1 [Compound 1898, N-(3-(3-oxo-2,3-dihydrospiro[indene-1,4′-piperidin]-6-yl)-1H-pyrrolo [2,3-b]pyridin-6-yl)isonicotinamide] |
| 0.014 µM | CN1CCC2(CC1)CC(=O)c1ccc(-c3c[nH]c4nc(NC(=O)c5ccncc5)ccc34)cc12 [Compound 1899, N-(3-(1′-methyl-3-oxo-2,3-dihydrospiro[indene-1,4′-piperidin]-6-yl)-1H-pyrrolo[2,3-b]pyridin-6-yl)isonicotinamide] |
| 0.001 µM | O=C(Nc1ccc2c(-c3ccc4ncccc4c3)c[nH]c2n1)c1ccncc1 [Compound 1908, N-(3-(Quinolin-6-yl)-1H-pyrrolo[2,3-b]pyridin-6-yl)isonicotinamide] |
| 0.005 µM | CN1CCC(Oc2ncnc3ccc(-c4c[nH]c5nc(NC(=O)c6ccncc6)ccc45)cc23)CC1 [Compound 1913, N-(3-(4-((1-Methylpiperidin-4-yl)oxy)quinazolin-6-yl)-1H-pyrrolo [2,3-b]pyridin-6-yl)isonicotinamide] |
